In patent US7371734B2, “Oligonucleotide compositions and their use for the modulation of immune responses” (Bioniche Life Sciences Inc., priority 2002, dated 2008):
Marks after values point to notes of the source that are not given here.

Legend:
Format in all cases: cell-based
Human dendritic cells [1] = test: CD86 levels at the DC cell surface (flow cytometry); conditions: 100 μg, 48 hours
Protocol: (§1) Human dendritic cells were obtained from Clonetics (San Diego, Calif., USA) and were cultured in the medium recommended by Clonetics. DC were obtained from three different individuals (see Table 1). Major histocompatability typing was performed on each of these individuals and several of the HLA (human leukocyte antigens) types are shown.
(§2) DC from individuals B and C were seeded in 1.0 ml at 1.0×10^5 cells/ml in 6-well flat-bottomed tissue culture plates for 48 hours with 100 μg of 6 base N1A, N1B, N2A, N2B, N3A, N3B, N4A, N4B, N5A, N5B, N6A, N6B, N7A or N7B polynucleotides. The level of CD86 at the cell surface was determined after 48 hours of incubation by flow cytometry using a PE-conjugated monoclonal antibody directed to CD86 (Serotec) and analyzed by CELLQuest Pro. Results are expressed as the percentage of CD86^hi DC following treatment.

Human dendritic cells [2] = test: CD80 levels at the DC cell surface (flow cytometry); conditions: 100 μg, 48 hours
Protocol: as §1
as §2, with “CD80” for “CD86”, “FITC-conjugated” for “PE-conjugated”, “CD80 (Serotec, Oxford, U.K.)” for “CD86 (Serotec)”, “CELLQuest.” for “CELLQuest Pro.”, “CD80^hi” for “CD86^hi”

Human dendritic cells [3] = test: Induction of IL-12 production by DC (ELISA); conditions: 100 μg, 48 hours
Protocol: as §1
DC were seeded in 1.0 ml at 1.0×10^5 cells/ml in 6-well flat-bottomed tissue culture plates for 48 hours with 100 μg of 6 base N1A, N1B, N2A, N2B, N3A, N3B, N4A, N4B, N5A, N5B, N6A, N6B, N7A or N7B polynucleotides. Production of IL-12 was determined in 100 μl of culture supernatant using a commercial ELISA (BioSource) after 48 hours of incubation. Results are expressed as the “fold” (x) increase in IL-12 production by treated DC compared to control cells.

Human dendritic cells [4] = test: Increase in cell size and granularity of DC (flow cytometry); conditions: 100 μg polynucleotide, 48 hours
Protocol: as §1
DC were seeded in 1.0 ml at 1.0×10^5 cells/ml in 6-well flat-bottomed tissue culture plates for 48 hours with 100 μg of 6 base N1A, N1B, N2A, N2B, N3A, N3B, N4A, N4B, N5A, N5B, N6A, N6B, N7A or N7B polynucleotides. Cell size (FCS: forward side scatter) and granularity (S SC: side light scatter) were determined by flow cytometry using a FACSCalibur and analyzed using the CELLQuest Pro software (both from Becton-Dickinson, San Diego, Calif., USA). Percentage of DC showing a FCS>500 units and a SSC>400 units have been determined after treatment with 3-OH, 5-OH polynucleotides for DC isolated from three different individuals.

Human dendritic cells [5] = test: MHC-II levels at the DC cell surface (flow cytometry); conditions: DC from individual B; 100 μg, 48 hours
Protocol: as §1
as §2, with “individual” for “individuals”, “B” for “B and C”, “N3B,” for “N3B, N4A, N4B,”, “MHC II” for “CD86”, “FITC-conjugated” for “PE-conjugated”, “MHC II^hi” for “CD86^hi”

Human dendritic cells [6] = test: CD40 levels at the DC cell surface (flow cytometry); conditions: 100 μg, 48 hours
Protocol: as §1
DC from individuals B and C were seeded in 1.0 ml at 1.0×10^5 cells/ml in 6-well flat-bottomed tissue culture plates for 48 hours with 100 μg of 6 base N1A, N1B, N2A, N2B, N3A, N3B, N4A, N4B, N5A, N5B, N6A, N6B, N7A or N7B polynucleotides. The level of CD40 at the cell surface was determined after 48 hours of incubation by flow cytometry (FACSCalibur system) using a FITC-conjugated monoclonal antibody directed to CD40 and analyzed by CELLQuest Pro (all from Becton Dickinson). Results are expressed as the percentage of CD40^hi DC following treatment. The term “CD40^hi” refers to a population of cells identified by flow cytometry as having higher than baseline expression of CD40.

Human dendritic cells [7] = test: Induction of IFN-gamma production by DC (ELISA); conditions: 100 μg, 48 hours
Protocol: as §1
DC were seeded in 1.0 ml at 1.0×10^5 cells/ml in 6-well flat-bottomed tissue culture plates for 48 hours with 100 μg of6 base N1A, N1B, N2A, N2B, N3A, N3B, N4A, N4B, N5A, N5B, N6A, N6B, N7A or N7B polynucleotides. Production of IFN-gamma was determined in 100 μl of culture supernatant using a commercial ELISA (BioSource) after 48 hours of incubation. Results are expressed as the “fold” (x) increase in IFN-gamma production by treated DC compared to control cells.

Human dendritic cells [8] = test: Induction of IL-1beta production by DC (ELISA); conditions: 100 μg, 48 hours
Protocol: as §1
DC were seeded in 1.0 ml at 1.0×10^5 cells/ml in 6-well flat-bottomed tissue culture plates for 48 hours with 100 μg of 6 base N1A, N1B, N2A, N2B, N3A, N3B, N4A, N4B, N5A, N5B, N6A, N6B, N7A or N7B polynucleotides. Production of IL-1beta was determined in 100 μl of culture supernatant using a commercial ELISA (BioSource, Camarillo, Calif., USA) after 48 hours of incubation. Results are expressed as the “fold” (x) increase in IL-1beta production by treated DC compared to control cells.

Human dendritic cells [9] = test: Endocytosis of FITC-dextran by DC; conditions: DC from individual B, 100 μg, 24 hours, untreated control = 100
Protocol: as §1
DC from individual B were seeded in 1.0 ml at 1.0×10^5 cells/ml in 6-well flat-bottomed tissue culture plates for 24 hours with 1 mg/ml of FITC-dextran (20 kDa; Sigma-Aldrich) in the absence or presence of 100 μg of 6 base N2A, N2B, N3A, N3B, N5A, N5B, and N6B polynucleotides at 4° C. (control cell surface binding of FITC-dextran) and 37° C. (to assess endocytosis). Cells were washed three times with ice-cold phosphate buffered saline and analyzed by flow cytometry using CELLQuest Pro. Results are expressed as relative endocytic rate (normalized Δ Mean Fluorescence Value (Δ MFV)). Δ MFV=MFV of DC exposed to FITC-dextran at 37° C.−MFV of DC exposed to FITC-dextran at 4° C. Δ MFV=(ΔMFVsequence/ΔMFVcontrol)×100.

Substance: 5′GGGGGG3′ [N5B]
- The percentage of CD86^hi DC following treatment (Human dendritic cells [1]; DC from individual B): 26** %
- The percentage of CD86^hi DC following treatment (Human dendritic cells [1]; DC from individual C): 31** %
- The percentage of CD80^hi DC following treatment (Human dendritic cells [2]; DC from individual B): 3%
- The percentage of CD80^hi DC following treatment (Human dendritic cells [2]; DC from individual C): 10%
- IL-12 production by DC (fold increase compared to untreated DC) (Human dendritic cells [3]; DC isolated from individual A): 7.5 fold
- IL-12 production by DC (fold increase compared to untreated DC) (Human dendritic cells [3]; DC isolated from individual B): 17.8 fold
- IL-12 production by DC (fold increase compared to untreated DC) (Human dendritic cells [3]; DC isolated from individual C): 15.0 fold
- Percentage of DC showing a FCS > 500 units and a SSC > 400 units (Human dendritic cells [4]; DC isolated from individual A): 53%
- Percentage of DC showing a FCS > 500 units and a SSC > 400 units (Human dendritic cells [4]; DC isolated from individual B): 16%
- Percentage of DC showing a FCS > 500 units and a SSC > 400 units (Human dendritic cells [4]; DC isolated from individual C): 23%
- The percentage of MHC-II^hi DC following treatment (Human dendritic cells [5]): 18%
- The percentage of CD40^hi DC following treatment (Human dendritic cells [6]; DC from individual B): 21%
- The percentage of CD40^hi DC following treatment (Human dendritic cells [6]; DC from individual C): 15%
- IFN-gamma production by DC (fold increase compared to untreated DC) (Human dendritic cells [7]; DC isolated from individual A): 3.5 fold
- IFN-gamma production by DC (fold increase compared to untreated DC) (Human dendritic cells [7]; DC isolated from individual B): 5.0 fold
- IFN-gamma production by DC (fold increase compared to untreated DC) (Human dendritic cells [7]; DC isolated from individual C): 1.5 fold
- IL-1beta production by DC (fold increase compared to untreated DC) (Human dendritic cells [8]; DC isolated from individual A): 5.0 fold
- IL-1beta production by DC (fold increase compared to untreated DC) (Human dendritic cells [8]; DC isolated from individual B): 7.5 fold
- IL-1beta production by DC (fold increase compared to untreated DC) (Human dendritic cells [8]; DC isolated from individual C): 3.7 fold
- Relative endocytic rate (normalized Δ MFV) (Human dendritic cells [9]): 151

Substance: 5′GGTGGG3′ [N2B]
- The percentage of CD86^hi DC following treatment (Human dendritic cells [1]; DC from individual B): 31** %
- The percentage of CD86^hi DC following treatment (Human dendritic cells [1]; DC from individual C): 53** %
- The percentage of CD80^hi DC following treatment (Human dendritic cells [2]; DC from individual B): 7%
- The percentage of CD80^hi DC following treatment (Human dendritic cells [2]; DC from individual C): 8%
- IL-12 production by DC (fold increase compared to untreated DC) (Human dendritic cells [3]; DC isolated from individual A): 1.3 fold
- IL-12 production by DC (fold increase compared to untreated DC) (Human dendritic cells [3]; DC isolated from individual B): 6.0 fold
- IL-12 production by DC (fold increase compared to untreated DC) (Human dendritic cells [3]; DC isolated from individual C): 2.5 fold
- Percentage of DC showing a FCS > 500 units and a SSC > 400 units (Human dendritic cells [4]; DC isolated from individual A): 42%
- Percentage of DC showing a FCS > 500 units and a SSC > 400 units (Human dendritic cells [4]; DC isolated from individual B): 38%
- Percentage of DC showing a FCS > 500 units and a SSC > 400 units (Human dendritic cells [4]; DC isolated from individual C): 50%
- The percentage of MHC-II^hi DC following treatment (Human dendritic cells [5]): 30%
- The percentage of CD40^hi DC following treatment (Human dendritic cells [6]; DC from individual B): 22%
- The percentage of CD40^hi DC following treatment (Human dendritic cells [6]; DC from individual C): 37** %
- IFN-gamma production by DC (fold increase compared to untreated DC) (Human dendritic cells [7]; DC isolated from individual A): 1.2 fold
- IFN-gamma production by DC (fold increase compared to untreated DC) (Human dendritic cells [7]; DC isolated from individual B): 1.2 fold
- IFN-gamma production by DC (fold increase compared to untreated DC) (Human dendritic cells [7]; DC isolated from individual C): 1.0 fold
- IL-1beta production by DC (fold increase compared to untreated DC) (Human dendritic cells [8]; DC isolated from individual A): 1.2 fold
- IL-1beta production by DC (fold increase compared to untreated DC) (Human dendritic cells [8]; DC isolated from individual B): 1.4 fold
- IL-1beta production by DC (fold increase compared to untreated DC) (Human dendritic cells [8]; DC isolated from individual C): 1.0 fold
- Relative endocytic rate (normalized Δ MFV) (Human dendritic cells [9]): 148
